Data on 16 molecules can be found in PubChem BioAssay AID1053164 (Broad Institute, 2014).

The structures appear in SMILES notation. Several values for one entry are separate records, joined by “and”; a condition that tells them apart may be missing. Equal entries are not always repeated. Activity calls are given as the source filed them. How the calls were made is not given here.

The target in this assay is Dihydrolipoyl dehydrogenase (Mycobacterium tuberculosis (strain ATCC 25618 / H37Rv)) (UniProt P9WHH9). The assay can be described thus: Purified Mycobacterium tuberculosis Lpd inhibitors, DTNB colorimetric coupled assay, confirmatory IC50 (AID 1053164). As to conditions: Purified M. tb Lpd, DTNB colorimetric plate reader.
Broadly, the IC50 is the concentration that gives 50% inhibition. On to `CO[C@H]1CC[C@H]2CCN(C)C(=O)CCN(C)C(=O)c3cccc(C#N)c3OC[C@@H]1O2`, for which the IC50 is > 100 µM (inactive).

Turning to `CCCC[C@@H]1C(=O)N(C)CC[C@@H]2CC[C@H](OC)[C@H](COc3c(C#N)cccc3C(=O)N1C)O2`, the IC50 is > 100 µM (inactive). Next, `CO[C@H]1CC[C@H]2CCN(C)C(=O)[C@@H](Cc3ccccc3)N(C)C(=O)c3cccc(C#N)c3OC[C@@H]1O2`: > 100 µM (inactive). For `CO[C@H]1CC[C@H]2CCN(C)C(=O)CCCN(C)C(=O)c3cc(Cl)cnc3OC[C@@H]1O2`, the IC50 is > 100 µM (inactive). Next, `CO[C@H]1CC[C@H]2CCN(C)C(=O)CN(C)C(=O)c3cccc(C#N)c3OC[C@@H]1O2`: > 100 µM (inactive); `CO[C@H]1CC[C@H]2CCN(C)C(=O)CCCN(C)C(=O)c3cccnc3OC[C@@H]1O2`: > 100 µM (inactive); `CO[C@H]1CC[C@H]2CCN(C)C(=O)[C@@H](c3ccccc3)N(C)C(=O)c3cccc(C#N)c3OC[C@@H]1O2`: > 100 µM (inactive). Take `CO[C@H]1CC[C@H]2CCN(C)C(=O)[C@@H](C)N(C)C(=O)c3ccc(F)nc3OC[C@@H]1O2`: the IC50 is > 100 µM (inactive). Regarding `CO[C@H]1CC[C@H]2CCN(C)C(=O)[C@@H](C)N(C)C(=O)c3c(C(F)(F)F)ccnc3OC[C@@H]1O2`, the IC50 is > 100 µM (inactive). As for `CO[C@H]1CC[C@H]2CCN(C)C(=O)[C@H]3CCCN3C(=O)c3cccc(C#N)c3OC[C@@H]1O2`, the IC50 is > 100 µM (inactive). `CO[C@H]1CC[C@H]2CCN(C)C(=O)CCCN(C)C(=O)c3cccc(C#N)c3OC[C@@H]1O2`: the IC50 was > 100 µM (inactive). As to `CO[C@H]1CC[C@H]2CCN(C)C(=O)[C@@H](C)N(C)C(=O)c3cccnc3OC[C@@H]1O2`, the IC50 was > 100 µM (inactive). Consider `CO[C@H]1CC[C@H]2CCN(C)C(=O)[C@@H](C)N(C)C(=O)c3cccc(C#N)c3OC[C@@H]1O2`, for which the IC50 was 6 µM and > 100 µM (inactive). Next, `CO[C@H]1CC[C@H]2CCN(C)C(=O)[C@@H](C(C)C)N(C)C(=O)c3cccc(C#N)c3OC[C@@H]1O2`: > 100 µM (inactive); `CO[C@H]1CC[C@H]2CC(=O)N(C)CCN(C)C(=O)c3cccc(C#N)c3OC[C@@H]1O2`: > 100 µM (inactive). On to `CO[C@H]1CC[C@H]2CCN(C)C(=O)[C@@H](C)N(C)C(=O)c3cc(Cl)cnc3OC[C@@H]1O2`, for which the IC50 was 25 µM.
